Results: PubChem BioAssay (NCI)
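Grown in 96-well plates, cells were treated for 48 hours with each compound at five concentrations. Insufficient inhibition: endpoint recorded as highest concentration tested. GI50 = concentration required for 50% inhibition of growth. TGI marks complete inhibition of growth.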

Experiments:
Experiment in all cases: NCI tumour cell line growth inhibition, 48 h
[1] = test system: OVCAR-4 ovarian
[2] = test system: A549 NSCLC
[3] = test system: SR leukemia
[4] = test system: SK-MEL-2 melanoma
[5] = test system: M14 melanoma
[6] = test system: MALME-3M melanoma
[7] = test system: HOP-92 NSCLC
[8] = test system: SK-MEL-5 melanoma
[9] = test system: NCI-H460 lung
[10] = test system: PC-3 prostate
[11] = test system: EKVX NSCLC
[12] = test system: NCI/ADR-RES ovarian
[13] = test system: SN12C renal
[14] = test system: UACC-62 melanoma
[15] = test system: HCT-15 colon
[16] = test system: SNB-75 CNS
[17] = test system: UACC-257 melanoma
[18] = test system: SF-268 CNS
[19] = test system: HS 578T breast
[20] = test system: RXF 393 renal
[21] = test system: U251 CNS
[22] = test system: MDA-MB-435
[23] = test system: ACHN renal
[24] = test system: CAKI-1 renal
[25] = test system: IGROV1 ovarian
[26] = test system: TK-10 renal
[27] = test system: HL-60(TB) leukemia
[28] = test system: NCI-H522 lung
[29] = test system: BT-549 breast
[30] = test system: RPMI-8226 leukemia
[31] = test system: COLO 205 colon
[32] = test system: MDA-MB-231 breast
[33] = test system: NCI-H226 lung
[34] = test system: OVCAR-5 ovarian
[35] = test system: T-47D breast
[36] = test system: SK-OV-3 ovarian
[37] = test system: A498 renal
[38] = test system: DU-145 prostate
[39] = test system: MOLT-4 leukemia
[40] = test system: HCT-116 colon
[41] = test system: UO-31 renal
[42] = test system: K-562 leukemia
[43] = test system: CCRF-CEM leukemia
[44] = test system: LOX IMVI melanoma
[45] = test system: KM12 colon
[46] = test system: SNB-19 CNS
[47] = test system: 786-0 renal
[48] = test system: NCI-H23 lung
[49] = test system: HOP-62 NSCLC
[50] = test system: HT29 colon
[51] = test system: SK-MEL-28 melanoma
[52] = test system: OVCAR-3 ovarian
[53] = test system: OVCAR-8 ovarian
[54] = test system: SF-539 CNS
[55] = test system: SW-620 colon
[56] = test system: HCC-2998 colon
[57] = test system: SF-295 CNS

Oc1c(Cl)cc(Cl)c2ccc(Cn3cc(-c4ccc(C(F)(F)F)cc4)nn3)nc12
GI50 [1]: 1.43 µM | TGI [1]: 3.37 µM | GI50 [2]: 16.5 µM | TGI [2]: 38.6 µM | GI50 [3]: 0.651 µM | TGI [3]: > 100 µM | GI50 [4]: 2.67 µM | TGI [4]: 7.65 µM | GI50 [5]: 1.93 µM | TGI [5]: 5.26 µM | GI50 [6]: 1.63 µM | TGI [6]: 3.13 µM | GI50 [7]: 1.9 µM | TGI [7]: 5.82 µM | GI50 [8]: 3.07 µM | TGI [8]: 11.4 µM | GI50 [9]: 18.9 µM | TGI [9]: 37.3 µM | GI50 [10]: 3 µM | TGI [10]: 11.1 µM | GI50 [11]: 5.8 µM | TGI [11]: 19.5 µM | GI50 [12]: 19 µM | TGI [12]: 64.2 µM | GI50 [13]: 2.91 µM | TGI [13]: 11.6 µM | GI50 [14]: 2.61 µM | TGI [14]: 11.9 µM | GI50 [15]: 1.42 µM | TGI [15]: 3.3 µM | GI50 [16]: 1.74 µM | TGI [16]: 10.8 µM | GI50 [17]: 1.23 µM | TGI [17]: 3.3 µM | GI50 [18]: 4.64 µM | TGI [18]: 20.1 µM | GI50 [19]: 2.38 µM | TGI [19]: 8.44 µM | GI50 [20]: 0.402 µM | TGI [20]: 1.79 µM | GI50 [21]: 4.43 µM | TGI [21]: 17.2 µM | GI50 [22]: 1.76 µM | TGI [22]: 3.75 µM | GI50 [23]: 1.35 µM | TGI [23]: 2.67 µM | GI50 [24]: 1.25 µM | TGI [24]: 2.97 µM | GI50 [25]: 1.41 µM | TGI [25]: 3.19 µM | GI50 [26]: 1.95 µM | TGI [26]: 4.22 µM | GI50 [27]: 0.685 µM | TGI [27]: 3.65 µM | GI50 [28]: 1.42 µM | TGI [28]: 3.79 µM | GI50 [29]: 1.94 µM | TGI [29]: 5.22 µM | GI50 [30]: 1.25 µM | TGI [30]: 6.33 µM | GI50 [31]: 1.39 µM | TGI [31]: 3.14 µM | GI50 [32]: 2.19 µM | TGI [32]: 6.81 µM | GI50 [33]: 5.64 µM | TGI [33]: 26.7 µM | GI50 [34]: 2.27 µM | TGI [34]: 7.59 µM | GI50 [35]: 1.88 µM | TGI [35]: 5.59 µM | GI50 [36]: 17.7 µM | TGI [36]: 33 µM | GI50 [37]: 3.57 µM | TGI [37]: 13.8 µM | GI50 [38]: 1.7 µM | TGI [38]: 3.33 µM | GI50 [39]: 0.825 µM | TGI [39]: 8.8 µM | GI50 [40]: 0.692 µM | TGI [40]: 2.57 µM | GI50 [41]: 1.36 µM | TGI [41]: 3.62 µM | GI50 [42]: 0.479 µM | TGI [42]: > 100 µM | GI50 [43]: 0.357 µM | TGI [43]: > 100 µM | GI50 [44]: 0.299 µM | TGI [44]: 1.11 µM | GI50 [45]: 12.1 µM | TGI [45]: 26.6 µM | GI50 [46]: 8.94 µM | TGI [46]: 22.8 µM | GI50 [47]: 1.82 µM | TGI [47]: 4.59 µM | GI50 [48]: 2.04 µM | TGI [48]: 4.76 µM | GI50 [49]: 16.4 µM | TGI [49]: 35.2 µM | GI50 [50]: 2.46 µM | TGI [50]: 6.75 µM | GI50 [51]: 1.78 µM | TGI [51]: 3.76 µM | GI50 [52]: 1.33 µM | TGI [52]: 2.74 µM | GI50 [53]: 2.75 µM | TGI [53]: 11.5 µM | GI50 [54]: 1.52 µM | TGI [54]: 2.94 µM | GI50 [55]: 0.493 µM | TGI [55]: 1.83 µM | GI50 [56]: 5.86 µM | TGI [56]: 20.3 µM | GI50 [57]: 17.2 µM | TGI [57]: 32.1 µM
